The subject of test [1] is S. aureus Smith. The test is described as follows: In vitro antibacterial activity (MIC), S. aureus Smith. The test is classed as cell-based. The conditions noted are these: agar dilution, 18 hours at 35° C. The method, then:
(§1) The compounds have shown activity in vitro against one or more of the following strains of bacteria: S. aureus Smith, S. aureus 53-180, N. catarrhalis 8193, E. coli 9637, S. paratyphi 11737, K. pneumoniae 10031, or P. vulgaris 6896.
(§2) A stock solution or suspension of the test compound at a concentration of 2500 μg/ml. is prepared utilizing a suitable solvent or medium such as aqueous sodium hydroxide, aqueous lactic acid, methyl cellosolve, dimethylsulfoxide, dimethylacetamide, ethylene glycol, dimethylformamide, formamide, propylene glycol, acetone or methanol. Two-fold dilutions are made by adding appropriate amounts of sterile water to the solution or suspension of the test substance. One ml. quantities of each dilution are incorporated into Wellcotest Sensitivity Test Agar fortified with 5% hemolyzed horse blood (9 ml. vol.) in sterile Petri dishes to give plates containing varying concentrations of the test compound. The hardened surfaces of each plate are incubated with the test organism, and the plates are incubated for 18 hours at 35° C.
In general terms: In agar dilution, organisms are placed on agar that contains the substance at set levels.

Test [2] concerns P. vulgaris 6896. The test is described as follows: In vitro antibacterial activity (MIC), P. vulgaris 6896. It counts as cell-based. The following applies: agar dilution, 18 hours at 35° C. As for the experimental part:
as §1, §2

In test [3] the test system is K. pneumoniae 10031. The test is described as follows: In vitro antibacterial activity (MIC), K. pneumoniae 10031. The test is classed as cell-based. The conditions noted are these: agar dilution, 18 hours at 35° C. The method, then: as §1, §2
In test [4] the test system is E. coli 9637. The experiment in a line: In vitro antibacterial activity (MIC), E. coli 9637. The test is classed as cell-based. The conditions noted are these: agar dilution, 18 hours at 35° C. As for the experimental part:
as §1, §2

Test [5] concerns S. paratyphi 11737. The test is described as follows: In vitro antibacterial activity (MIC), S. paratyphi 11737. The conditions noted are these: agar dilution, 18 hours at 35° C. It counts as cell-based. The method, then: as §1, §2
Test [6] has as its system S. aureus 53-180. The test is described as follows: In vitro antibacterial activity (MIC), S. aureus 53-180. The test is classed as cell-based. The conditions noted are these: agar dilution, 18 hours at 35° C. As for the experimental part:
as §1, §2

The subject of test [7] is N. catarrhalis 8193. The test is described as follows: In vitro antibacterial activity (MIC), N. catarrhalis 8193. It counts as cell-based. The following applies: agar dilution, 18 hours at 35° C. As for the experimental part:
as §1, §2

Test [8] deals with Staphylococcus aureus CHP. The test is described as follows: In vivo antibacterial synergism (mouse), Staphylococcus aureus CHP. The arrangement: species or system Mice (male, CD-1 strain). The following applies: p.o., at time of infection, Cpd. dose in combination with SM, 20160 min. As for the experimental part: (§3) The test agent is weighed, suspended in 0.5% aqueous carboxymethyl cellulose, hemogenized (glass tissue grinder) and diluted according to the design of the experiment. Mice (male, 18±1 g., CD-1 strain) are pre-weighed, pooled, infected at random intraperitoneally with a 0.5 ml. standardized suspension (LD95 ±5%) of the bacterial organism in 5% gastric mucin and treated at random with single doses of the test agents either at the time of infection or six hours after infecting. The treated groups consist of ten mice per dosage level. Deaths are recorded daily for 14 days and the PD50 (mice are treated at time of infection) and CD50 (mice are treated six hours after infecting) values are calculated by the method of Reed and Muench [Amer. J. Hyg., 27, (1938)].

Test [9] deals with Escherichia coli (E-3). The test is described as follows: In vivo antibacterial synergism (mouse), Escherichia coli (E-3). Further details: species or system Mice (male, CD-1 strain). The conditions noted are these: p.o., at time of infection, Cpd. dose in combination with SM, 20160 min. As for the experimental part:
as §3

In test [10] the test system is Escherichia coli (E-2). The experiment in a line: In vivo antibacterial synergism (mouse), Escherichia coli (E-2). The arrangement: species or system Mice (male, CD-1 strain). The conditions noted are these: p.o., at time of infection, Cpd. dose in combination with SM, 20160 min. The method, then: as §3

These results are taken from patent US4233445A, “7-(Substituted)-7H-pyrrolo[3.2-F]-quinazoline-1,3-diamines” (American Home Products Corporation, priority 1979, dated 1980).

≈ marks a conversion by molar mass, not a printed value.

Consider `CC(C)c1cccc(Cn2ccc3c4c(N)nc(N)nc4ccc32)c1` [Example 5], for which the “MIC (minimal inhibitory concentration)” value in test [1] came to 1.95 µg/mL (≈ 5.88 µM); in [2], 62.5 µg/mL (≈ 189 µM); in [3] it was 0.244 µg/mL (≈ 0.736 µM); in [4] it was 7.81 µg/mL (≈ 23.6 µM); in test [5], 31.3 µg/mL (≈ 94.4 µM); in test [6] it was 0.488 µg/mL (≈ 1.47 µM). Besides, the “MIC (minimal inhibitory concentration)” value in test [7] amounted to 3.9 µg/mL (≈ 11.8 µM).
For `COC(=O)c1ccc(Cn2ccc3c4c(N)nc(N)nc4ccc32)cc1` [Example 8], the MIC in test [1] (Staphylococcus aureus, read-out: MIC (minimal inhibitory concentration)) worked out at 31.5 µg/mL (≈ 90.7 µM).
As to `Nc1nc(N)c2c(ccc3c2ccn3-c2ccncc2)n1` [Example 10, 7-(4-Pyridinyl)-7H-pyrrolo-[3,2-f]quinazoline-1,3-diamine], the “PD50, SM/Cpd. (Cpd. component)” value in test [8] stood at 7.28 mg. per kg; in test [9], 6.25 mg. per kg; in test [10], 1.20 mg. per kg.
